Where two headings read alike, the source gives them in different places.
Molecular target: T1, DR1Dw1 (Homo sapiens, UniProt P01903+P01911, A100R/D57E/F55L/F60I/F76Y/I96L/L162R/M171V/P40L/Q125E/R42F/V115G/Y59C)
T1 construct: these are Drosophila transmembrane DR; made in house; host or cells: Drosophila (cells)
Assay: Inhibition of biotinylated RMBP 90-102 peptide binding to MHC class II DR1 (europium-streptavidin capture assay)
Protocol: In studies optimizing the assay it was determined that only between 5 to 10% of the DR molecules are capable of binding added peptide. Therefore, the effective concentration of DR1Dw1 and DR4Dw4 was approximately 0.125 and 1.0 nM, respectively. […] The DR-peptide complexes (50 μL) are transferred to wells of a 96-well EIA plate precoated with LB3.1, the monoclonal antibody which recognizes the DR alleles of MHC Class II, and blocked with PBS with fetal calf serum (FCS). An additional 50 μL of 50 mM Tris, pH 7.0, containing 0.75% octyl glucoside is added to each well and the mixture incubated overnight at 4° C. Excess peptide is removed by washing with PBS containing 0.05% Tween 20 (Polyoxyethylene sorbitan monolaurate) and 0.01% NaN3. Europium-labeled streptavidin (Wallac Inc.) is added and incubated overnight. After washing, complexes are measured by the addition of Enhance™ buffer, the tradename for 0.1M acetate phthalate buffer, pH 3.2, containing 0.1% Triton X-100, tradename for polyoxyethylene ethers and other surface active compounds of Union Carbide Chemicals and Plastics Co., Inc. (particularly, a non-ionic surfactant for recovery of membrane components under non-denaturing conditions) 15 μM 2-naphthoyltrifluoroacetone, and 50 μM tri-N-octylphosphine oxide, which buffer releases the chelated europium from streptavidin and forms a highly fluorescent micellar solution. The resultant fluorescence is measured using a fluorescent plate reader (e.g., DELPHIA, Wallac, Inc.). The data are analyzed using a four-parameter logistical curve […] program (e.g., SigmaPlot) that calculates the concentration of biotinylated peptide giving a half-maximal signal (ED50).
The inhibition assay format is identical to the procedure described above with the exception that the unlabeled antagonist is serially diluted and incubated with constant concentrations of biotinylated RMBP 90-102 (0.3 nM for DR1Dw1 or 0.9 nM for DR4Dw4) and the MHC class II proteins. The concentration of unlabeled compound that prevents 50% of the labeled peptide from binding is the IC50 value. The concentration of the biotinylated RMBP 90-102 in each assay is experimentally determined to be […] one-sixth of its measured ED50 to assure the inhibition was primarily measuring the binding characteristics of the competitor.
In particular, a protocol for carrying out the inhibition assay is given below.
Add 115 μL of 5μg/mL LB3.1 in 50 mM Tris HCl pH 9.6/azide to each well of a Costar EIA plate. Incubate the plate overnight at 4° C.
Wash the plate 4 times with water/0.05% Tween-20/azide. Add 200 μL of PBS /5% FCS/azide for 1 hour at 4° C. to block the plate. The plate may be held at this point for later use or used immediately.
Flip out the block. It is not necessary to wash the plate. At 50 μL of load buffer (50 mM Tris HCl, pH 8.0 0.75% octylglucoside). Add to this volume 50 μL of the reaction mix from day 2, step 3 below.
(1) Add the following to a polypropylene round bottom 96-well plate such as a Costar #3794:
(A) Diluent (Ca Mg free PBS adjusted to pH 6.5 with 0.1 M KH2 PO4/0.75% octylglucoside/azide).81 μL
(B) Competitor at 16.6 times the final concentration in diluent or diluent alone. 9 μL
(C) biotinylated rat myelin basic protein (BRMBP) 90-102; 1.5 nM for DR1 or 4.5 nM for DR4 (These are 5× stocks of final concentrations of 0.3 nM/DR1 or 0.9 nM/DR4) 30 μL
(D) 6.25 nM DR1Dw1 or 50 nM DR4Dw4 (these are Drosophila transmembrane DR) (This is a 5× stock of the final concentration of 1.25 or 10 nM.) 30 μL Add the DR last and mix well at this time 150 μL
(2) Incubate at 37° C. for 20 min and 5 hours.
(3) Add 50 μL of this reaction mixture to one well of the blocked antibody plate from day 2 above.
(4) Incubate overnight at 4° C. to capture the DR-peptide complexes.
(6) Add 125 μL of 100 ng/mL europium streptavidin (Wallac Inc.) in Ca Mg free PBS with 3.5 mg DTPA, 1.6 mL of 30% BSA/500 mL to each well.
(7) Incubate 2 to 4 hours at 4° C. […]

[1] = incubation at 37° C. for 20 min, 0.3 nM biotinylated RMBP 90-102, 1.25 nM DR1Dw1, pH 6.5, read-out: IC50 /μM @ 20'
[2] = incubation at 37° C. for 5 hours, 0.3 nM biotinylated RMBP 90-102, 1.25 nM DR1Dw1, pH 6.5, read-out: IC50 /μM @ 5h

Compound | IC50 [1] | IC50 [2]
CCCC(NC(=O)C(C)(C)NCCCC1CCCCC1)C(=O)NC(CC(C)C)C(N)=O (stereo not drawn) [Example 2, N-α((2-Methyl-2-((3-cyclohexyl)propylamino))-propanoyl)-Nva-Leu-NH2] | 0.26 µM | 1.59 µM
CCCC(NC(=O)C(Cc1cccnc1)NCCCC1CCCCC1)C(=O)NC1CCCCNC1=O (stereo not shown) [Example 5] | 0.21 µM | 1.43 µM
CCC[C@H](NC(=O)[C@H](CCCCN)NC(=O)C=Cc1ccccc1C)C(=O)N[C@@H](CC(C)C)C(N)=O [Example 13, α-[2-methylcinnamoyl]-Lys-Nva-Leu-NH2] | 0.25 µM | 1.7 µM
α-[3-Phenylpropyl]-Lys-Nva-Leu-NH2 [Example 38] | 0.16 µM | 1.8 µM
α-[(1R,2S)-1-Cyclohexylcyclopropyl-1-carbonyl]-Lys-Nva-Leu-NH2 [Example 22] | 0.012 µM | 1.08 µM

Further lines, results first:

IC50 [1] | IC50 [2] | Compound
0.16 µM | 1.25 µM | CCCC(NC(=O)C(CCCCN)NC(=O)CC(C)c1ccccc1)C(=O)NC(CC(C)C)C(N)=O (stereo not drawn) [Example 34, α-[3R-methyl-3-phenylpropionyl]-Lys-Nva-Leu-NH2]
0.04 µM | 0.187 µM | CCCC(NC(=O)C(CCCCN)NC(=O)CC(C)C1CCCCC1)C(=O)NC(CC(C)C)C(N)=O (stereo not drawn) [Example 36, α-[3R-methyl-3-cyclohexylpropionyl]-Lys-Nva-Leu-NH2]
0.0052 µM | 0.059 µM | CCCC(NC(=O)C(CCCCN)NCCCC1CCCCC1)C(=O)NC(CC(C)C)C(N)=O (stereo not drawn) [Example 40, α-[3-Cyclohexylpropyl]-Lys-Nva-Leu-NH2]
0.15 µM | 0.68 µM | CCCC(NC(=O)C(CCCCN)NCCCC1CCCCC1)C(=O)NN(CC(C)C)C(=O)OCC (stereo not drawn) [Example 48, α-[3 -Cyclohexylpropyl]-Lys-Nva-α-AzaLeu-OEt]
0.046 µM | 0.26 µM | CCCCN(NC(=O)C(CCC)NC(=O)C(CCCCN)NCCCC1CCCCC1)C(=O)OCC (stereo not drawn) [Example 50, α-[3-Cyclohexylpropyl]-Lys-Nva-α-AzaNle-OEt]
0.03 µM | 0.14 µM | CCCCN(NC(=O)C(CCC)NC(=O)C(CCCCN)NCC1CCc2ccccc2C1)C(=O)OCC (stereo not drawn) [Example 52, α-[1,2,3,4-tetrahydronaphthyl-2-methyl]-Lys-Nva-α-AzaNle-OEt]

Source: US5817757A, “Inhibitors of peptide binding to MHO class II proteins” (Merck & Co., Inc., priority 1996, dated 1998)
